Assay results published in ChEMBL document CHEMBL1629667, “Activities of dalbavancin against a worldwide collection of 81,673 gram-positive bacterial isolates” (2009).
≈ marks a conversion by molar mass, not a printed value.

What was measured:
Type in all cases: functional
Enterococcus faecium [1] = experiment: Antimicrobial activity against Enterococcus faecium VanA assessed as growth inhibition at 0.06 ug/ml by broth microdilution method
Staphylococcus = experiment: Antimicrobial activity against Oxacillin-susceptible coagulase-negative Staphylococcus assessed as percent susceptible isolate by broth microdilution method
Enterococcus faecalis [2] = experiment: Antimicrobial activity against Enterococcus faecalis VanA assessed as growth inhibition at 2 ug/ml by broth microdilution method
Enterococcus faecium [3] = experiment: Antimicrobial activity against Enterococcus faecium VanB assessed as growth inhibition at 0.12 ug/ml by broth microdilution method
Enterococcus faecalis [4] = experiment: Antimicrobial activity against Enterococcus faecalis VanB assessed as growth inhibition at 0.5 ug/ml by broth microdilution method
Staphylococcus aureus [5] = experiment: Antimicrobial activity against Oxacillin-resistant Staphylococcus aureus assessed as percent susceptible isolate by broth microdilution method
[6] = test system: Streptococcus sp. 'group A'; experiment: Antimicrobial activity against Beta-hemolytic Streptococcus sp. 'group A' assessed as growth inhibition at 0.06 ug/ml by broth microdilution method
Streptococcus = experiment: Antimicrobial activity against viridans group Streptococcus by broth microdilution method
Enterococcus faecalis [7] = experiment: Antimicrobial activity against Enterococcus faecalis VanA assessed as growth inhibition at 0.5 ug/ml by broth microdilution method
Enterococcus faecium [8] = experiment: Antimicrobial activity against Enterococcus faecium VanB assessed as growth inhibition at 4 ug/ml by broth microdilution method
[9] = test system: Streptococcus sp. 'group A'; experiment: Antimicrobial activity against Beta-hemolytic Streptococcus sp. 'group A' assessed as growth inhibition at =<[…] ug/ml by broth microdilution method
Enterococcus faecalis [10] = experiment: Antimicrobial activity against Enterococcus faecalis VanA assessed as growth inhibition at 0.12 ug/ml by broth microdilution method
Staphylococcus aureus [11] = experiment: Antimicrobial activity against Oxacillin-susceptible Staphylococcus aureus assessed as percent susceptible isolate by broth microdilution method
Enterococcus faecalis [12] = experiment: Antimicrobial activity against Enterococcus faecalis VanA assessed as growth inhibition at =<[…] ug/ml by broth microdilution method
[13] = Antimicrobial activity against Beta-hemolytic Streptococcus sp. 'group G' assessed as growth inhibition at =<[…] ug/ml by broth microdilution method
[14] = Antimicrobial activity against Beta-hemolytic Streptococcus sp. 'group G' assessed as growth inhibition at 0.06 ug/ml by broth microdilution method

CN[C@H](CC(C)C)C(=O)N[C@H]1C(=O)N[C@@H](CC(N)=O)C(=O)N[C@H]2C(=O)N[C@H]3C(=O)N[C@H](C(=O)N[C@H](C(=O)O)c4cc(O)cc(O)c4-c4cc3ccc4O)[C@H](O)c3ccc(c(Cl)c3)Oc3cc2cc(c3O[C@@H]2O[C@H](CO)[C@@H](O)[C@H](O)[C@H]2O[C@H]2C[C@](C)(N)[C@H](O)[C@H](C)O2)Oc2ccc(cc2Cl)[C@H]1O [VANCOMYCIN]
inhibition at 0.06 µg/mL (Enterococcus faecium [1]): 0.3%
Activity (Staphylococcus): 100%
inhibition at 2 µg/mL (Enterococcus faecalis [2]): 7.4%
inhibition at 0.12 µg/mL (Enterococcus faecium [3]): 71.6%
inhibition at 0.5 µg/mL (Enterococcus faecalis [4]): 75%
Activity (Staphylococcus aureus [5]): >99.9%
inhibition at 0.06 µg/mL [6]: 99.9%
MIC50 (Streptococcus): 0.5 µg/mL (≈ 0.345 µM)
MIC90 (Streptococcus): 1 µg/mL (≈ 0.69 µM)
inhibition at 0.5 µg/mL (Enterococcus faecalis [7]): 4.3%
inhibition at 4 µg/mL (Enterococcus faecium [8]): 97.8%
inhibition (INH) [9]: 98.8%
inhibition at 0.12 µg/mL (Enterococcus faecalis [10]): 2.6%
Activity (Staphylococcus aureus [11]): >99.9%
inhibition (INH) (Enterococcus faecalis [12]): 0.4%
inhibition (INH) [13]: 95.6%
inhibition at 0.06 µg/mL [14]: 99.6%
